# Assay results from article PMC8301776, “New Hybrid Compounds Combining Fragments of Usnic Acid and Monoterpenoids for Effective Tyrosyl-DNA Phosphodiesterase 1 Inhibition” (Biomolecules, 2021).
# pIC50: −log10 of the molar value. Entries after “also recorded” stand apart in the source; their conditions may differ.
# Tests used:
# HeLa cells [1] = experiment: Topotecan cytotoxicity in combination with TDP1 inhibitors, colorimetric test, HeLa; type: cell-based, human
# Protocol: (§1) Cytotoxicity of the compounds was examined against human cell lines HEK293A (human embryonic kidney)—WT and TDP1-deficient (Tdp1-/-), and HeLa (cervical cancer) using an EZ4U colorimetric tests (Biomedica, Vienna, Austria) or xCELLigence DP Real-Time Cell Analyzer (ACEA Biosciences, Santa Clara, CA, USA). Cell lines were obtained from the Russian Cell Culture Collection (RCCC) Institute of Cytology RAS (St. Petersburg, Russia). The cells were grown in DMEM/F12 medium (Thermo Fisher Scientific, Waltham, MA, USA), with 1× GlutaMAX (Thermo Fisher Scientific, Waltham, MA, USA), 50 IU/mL penicillin, and 50 μg/mL streptomycin (Thermo Fisher Scientific, Waltham, MA, USA), and in the presence of 10% fetal bovine serum (Biolot, Saint-Petersburg, Russia) in 5% CO2 atmosphere. Control cells were grown in the presence of 1% DMSO where indicated. After formation of a 30–50% monolayer, tested compounds were added to the medium, and the cell culture was monitored for 3 days. […] The measurements were carried out in three parallel experiments.
# The combination index (CI) values were determined for different concentrations of Tpc and the enamines 11a–d at 2 and 5 μM. […] The CI values were calculated with the CompuSyn version 1.0 software. The CI plot at different fraction-affected (Fa) was determined for Tpc (0.3, 0.5, 1, 2, and 4 μM) and the Tdp1 inhibitors (2 and 5 μM).
# HEK293A cells = experiment: Intrinsic cytotoxicity, EZ4U colorimetric test, HEK293A; type: cell-based, human; settings: Figure 6
# Protocol: as §1
# (§2) The intrinsic cytotoxicity of the four lead compounds (11a–d) was examined using a colorimetric test (Figure 6).
# HEK293A TDP1-/- cells = experiment: Topotecan cytotoxicity alone or in combination, colorimetric test, HEK293A TDP1-/- clones C6, G6, F7; type: cell-based, human
# Text: TDP1 knockout HEK293A clones were obtained in the same way as the previously described TDP1 knockout HEK293FT clones. Briefly, two 20-nt protospacer sequences flanking the first protein coding exon of human TDP1 gene were selected using https://www.benchling.com/ (accessed date 1 November 2020). Oligonucleotides were cloned in plasmid pSpCas9(BB)-2A-GFP (PX458). pSpCas9(BB)-2A-GFP (PX458) was a gift from Feng Zhang (Addgene plasmid # 48138; http://n2t.net/addgene:48138; RRID: Addgene_48138). HEK293A cells were transfected with plasmids pX458-TDP1-gRNA1 and pX458-TDP1-gRNA2 (0.25 µg of each) using Lipofectamine 3000 Reagent (Thermofisher Scientific, Waltham, MA, USA). Growth medium contained DMEM/F12 (Thermofisher Scientific, Waltham, MA, USA) 1:1, 10% FBS (Thermofisher Scientific, Waltham, MA, USA), 100 U/mL penicillin–streptomycin (Thermofisher Scientific, Waltham, MA, USA), and 1 × GlutaMAX (Thermofisher Scientific, Waltham, MA, USA). […] Single cell clones grew for two weeks, and genome DNA was analyzed on CRISPR/Cas9-mediated deletions in TDP1 gene by PCR amplification of target region with primers: TDP1-scF 5′-[…]-3′ and TDP1-scR 5′-[…]-3′. […]
# Cytotoxicity of the compounds was examined against human cell lines HEK293A (human embryonic kidney)—WT and TDP1-deficient (Tdp1-/-), and HeLa (cervical cancer) using an EZ4U colorimetric tests (Biomedica, Vienna, Austria) or xCELLigence DP Real-Time Cell Analyzer (ACEA Biosciences, Santa Clara, CA, USA). […] After formation of a 30–50% monolayer, tested compounds were added to the medium, and the cell culture was monitored for 3 days. […]
# In our previous work, the cytotoxic effect of Tpc and the TDP1 inhibitors, monoterpene 3-carene derivatives, was established; both were measured separately and jointly using a panel of HEK293FT TDP1 knockout isogenic clones. […] No cleavage activity was detected in the clones’ C6, G6, and F7 cell extracts in contrast to control WT and purified TDP1. […]
# HeLa cells [2] = experiment: Intrinsic cytotoxicity, EZ4U colorimetric test, HeLa; type: cell-based, human; settings: Figure 6
# Protocol: as §1, §2
# HEK293A WT cells [3] = experiment: Topotecan cytotoxicity in combination with TDP1 inhibitors, colorimetric test, HEK293A WT; type: cell-based, human
# Protocol: as §1
# There was no difference between WT and the mutant cells.
# HEK293A WT cells [4] = experiment: xCELLigence impedance-based real-time cell growth assay, alone or with Tpc; design: species or system human
# Protocol: as §1
# This stimulation was also confirmed for HEK293A WT cells using the xCELLigence DP Real-Time Cell Analyzer impedance-based assay (Figure 9). […] The stimulation effect depends on the concentration of compounds 11a and 11c (Figure 9B,C).
# (A). Cell growth of HEK293A cells in the control wells without compounds added (black), with 50 nM Tpc (red), 40 µM 11a (dark green), or 40 µ M 11c (violet). (B,C) Cell growth of HEK293A cells with 50 nM Tpc only (red) and in combination with 5 µM (green), 10 µM (dark blue), 20 µM (pink), or 40 µM (blue) 11a (B) or 11c (C).
# TDP1 = biological target: T1, TDP1 (Homo sapiens, UniProt Q9NUW8); experiment: Real-time fluorescence detection of TDP1 activity (FAM/BHQ1 oligonucleotide biosensor); type: biochemical; settings: as repeated in Table S1; read-out: IC50
# T1 construct: made in house; host or cells: E. coli
# Lewis lung carcinoma = settings: mice with Lewis lung carcinoma; various administration schedules; cited from earlier work
# Krebs 2 ascites tumors = tested on: Krebs 2 ascites tumors; design: method as in PMID 33871444; settings: Krebs 2 ascites tumors in mice; cited from earlier work
# T1 sequence (Q9NUW8 whole entry): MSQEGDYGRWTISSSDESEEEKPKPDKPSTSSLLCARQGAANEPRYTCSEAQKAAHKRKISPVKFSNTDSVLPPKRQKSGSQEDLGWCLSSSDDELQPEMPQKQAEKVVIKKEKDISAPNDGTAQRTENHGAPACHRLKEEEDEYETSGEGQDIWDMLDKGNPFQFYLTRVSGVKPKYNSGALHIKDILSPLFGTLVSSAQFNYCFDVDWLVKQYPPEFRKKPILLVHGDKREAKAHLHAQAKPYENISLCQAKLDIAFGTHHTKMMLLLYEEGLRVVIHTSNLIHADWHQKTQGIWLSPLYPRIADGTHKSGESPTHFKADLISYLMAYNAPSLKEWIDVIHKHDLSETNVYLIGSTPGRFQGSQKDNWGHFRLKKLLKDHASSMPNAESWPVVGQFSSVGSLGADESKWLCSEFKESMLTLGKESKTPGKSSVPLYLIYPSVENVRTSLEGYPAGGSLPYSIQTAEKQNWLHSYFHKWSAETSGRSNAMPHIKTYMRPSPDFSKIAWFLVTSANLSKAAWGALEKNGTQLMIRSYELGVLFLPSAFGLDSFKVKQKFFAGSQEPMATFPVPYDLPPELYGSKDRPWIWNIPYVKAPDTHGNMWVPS
structure (smiles),measurement,setting,value
"CC(=O)c1c(O)c(C)c(O)c2c1OC1=CC(=O)/C(=C(/C)NCCC3=CC[C@H]4C[C@@H]3C4(C)C)C(=O)[C@@]12C [11c, (2R,4E)-10-Acetyl-4-[1-({2-[(1R,5S)-6,6-dimethylbicyclo[3.1.1]hept-2-en-2-yl]ethyl}amino)ethylidene]-11,13-dihydroxy-2,12-dimethyl-8-oxatricyclo[7.4.0.0^2,7]trideca-1(13),6,9,11-tetraene-3,5-dione]",effect on Tpc cytotoxicity (in words),HeLa cells [1],enhanced topotecan’s cytotoxicity; also recorded: synergistic effect; also recorded: enhanced Tpc cytotoxicity
same,intrinsic cytotoxicity (in words),HEK293A cells,non-cytotoxic
same,"effect on cell growth in combination with Tpc, compared to Tpc (in words)","HEK293A TDP1-/- cells; HEK293A Tdp1-/- cells, combination with Tpc",stimulation of cell growth
same,intrinsic cytotoxicity (in words),HeLa cells [2],non-cytotoxic
same,"effect on Tpc cytotoxicity / cell growth, compared to Tpc (in words)",HEK293A WT cells [3],reduced it; also recorded: stimulation of cell growth; also recorded: stimulated cell growth
same,"effect on cell growth with Tpc, compared to Tpc","HEK293A WT cells [4]; 50 nM Tpc + 5, 10, 20 or 40 µM compound",stimulated cell growth
same,toxicity of compound alone (in words),HEK293A WT cells [4]; 40 µM compound,non-toxic
same,pIC50,TDP1,6.49
CC(=O)c1c(O)c(C)c(O)c2c1OC1=CC(=O)/C(=C(/C)NCCCc3cc(C(C)(C)C)c(O)c(C(C)(C)C)c3)C(=O)[C@@]12C [5b],antimetastatic activity,Lewis lung carcinoma,strong antimetastatic activity
"CC[C@@]1(O)C(=O)OCc2c1cc1n(c2=O)Cc2cc3c(CN(C)C)c(O)ccc3nc2-1 [Tpc, topotecan, reference compound]","antitumor effect, given separately",Krebs 2 ascites tumors,antitumor effect
same,sensitivity of TDP1-/- cells to Tpc compared to WT,"HEK293A TDP1-/- cells; HEK293A clones C6, G6, F7 vs WT, colorimetric test",more sensitive to Tpc compared to WT
